In US20080317700A1 (priority 2006, published 2008):

Assays:
green algae CD 1 Red = assay: organism not typed; assay type: cell-based
Procedure: After phototrophical propagation during the 5 days under cool fluorescence light (intensity 5000 lux), the average radii of inhibition zones were measured. Water soaked filter paper circles were used as controls. Experiments for each herbicide concentration were repeated 3 times.

[1] = test system: natural freshwater biofouling organisms (periphyton); assay: Field trial: periphyton biofouling on coated tiles in artificial stream (chlorophyll extraction); settings: for Extracted chl (periphyton chl biomass) per tile: 459S2 coating with 0.15 M herbicide on ceramic tiles, 10 days in flow channels, bare tiles 11.1±2.87, blank resin 9.35±1.07
Procedure: Field tests were conducted during July and August, 2006 at the University of Michigan Biological Station Experimental Stream Laboratory located near Douglas Lake, Pellston, Mich. Resin 459S2 containing 0.15 M of a designated herbicide was coated on terracotta ceramic tiles (3×6 inches) pretreated with silanes for improved adhesion and photocured by an H-bulb system obtained from Fusion Inc. The coating thickness was 12.5 μm (0.5 mil). Bare tiles and tiles coated with 459S2 containing no additive were used as controls. Nine tiles for each series were placed into separate flow channels with a constant water flow of 3 L min^−1 for each channel. Each flow channel utilized water pumped from the East Branch of the Maple River containing natural freshwater biofouling organisms. Each flow channel was covered with a mesh screen to reduce direct light exposure and to ensure more favorable growth conditions. Tiles were left in the flow channels for 10 days.
Chlorophyll (chl) biomass attached to the surface of each tile was determined after the tiles had been washed three times with tap water to remove mud and other loosely attached species. The coated surface of the tile was submerged into a plastic vessel containing 25 mL of 90/10 acetone/saturated aqueous MgCl2. The container itself was placed into an ultrasonic bath and the entire system was sonicated for 30 seconds to facilitate chl extraction. The UV-vis spectrum of each extract was measured on a Shimadzu diode-array spectrophotometer using a 1 cm quartz cell. The amount of chl was determined using the following equation:^29
where Aλ1-λ2 is the difference in absorbance at two designated wavelengths and l is the spectroscopic cell pathlength. Two independent field trials were conducted.

[2] = test system: Phaeodactylum tricornutum; assay: Inhibition zones around polymer pellets, diatom Phaeodactylum; assay type: cell-based; settings: Phaeodactilum, pellet without herbicide 0
Procedure: Rectangular copolymer pellets (15×10×1.5 mm) were formed from a model acrylic resin (designated as 459S2) containing several epoxy acrylic oligomers (57%), acrylic monomeric diluents (43%) and a corresponding amount of herbicide. A designated quantity of herbicide was dispersed or partially dissolved in 459S2 resin using ultrasonication and heat (60° C., overnight). To each sample, 1.5% wt. of commercial photoinitiator (ITX), 5% of ODAB synergist and 0.1% co-photoinitiator (Irgacure 819) were added. Liquid formulations were poured into an open top Teflon mold and irradiated under N2 by a 395 nm LED light source for 5 min followed by pellet removal.
Two different diatom cultures, Phaeodactylum tricornutum and Navicula pelliculosa were used in the biological activity tests. […] Following propagation over 5 days under continuous cool fluorescent light (5000 lx), the average radii of inhibition zones were measured. Experiments for each herbicide concentration were repeated at least two times.

E. Coli = E. Coli agar experiments (colony count); assay type: cell-based; settings: M9 agar, 1 mM herbicide, 37° C., 24 hours; controls 36 colonies
Procedure: A M9 minimum medium containing 1.5 wt. % agar was prepared and sterilized at 121° C., 1.05 kg cm^−2 for 20 min. An aliquot of each tested herbicide solution was added to portions of the autoclaved agar to give a 1 mM final concentration of the herbicide. Twenty mL of the liquid agar was poured into a standard Petri dish and allowed to harden at room temperature. E. Coli cell suspensions were inoculated using a sterile inoculation loop and stored at 37° C. for 24 hours. Control and treated cultures were grown under the same conditions. In each experiment, the inhibition of growth in treated cultures was monitored relative to growth in control samples by manually counting the number of colonies.

[3] = CD1 Red, herbicide concentration 0.3 mM, 5 days
[4] = CD1 Red, herbicide concentration 3 mM, 5 days
[5] = herbicide 0.1 M in 459S2 polymer pellet
[6] = herbicide 0.3 M in 459S2 polymer pellet

| Compound | zone of inhibition at 300000 µM (green algae CD 1 Red; 120 h, read-out: Average radii of the inhibition zones) [mm] | Average radii of the inhibition zones (green algae CD 1 Red; [3]) | Average radii of the inhibition zones (green algae CD 1 Red; [4]) | Average radii of the inhibition zones (green algae CD 1 Red; CD1 Red, herbicide concentration 30 mM, 5 days) | Extracted chl (periphyton chl biomass) per tile [1] [μg tile^−1] | Periphyton chl relative to tiles containing unfunctionalized glyphosate ([1]; 459S2 coating with 0.15 M herbicide, 10 days, unpaired two-tailed t-test, P<0.05) | Diameter of Inhibition Zone (Bleaching indicates no growth detected on 100 mm plate) [2, 5] [mm] | Diameter of Inhibition Zone (Bleaching indicates no growth detected on 100 mm plate) [2, 6] | Number of E. Coli colonies (E. Coli) [colonies] | zone of inhibition at 30000 µM (green algae CD 1 Red; 120 h, CD1 Red, herbicide concentration 30 mM, 5 days, read-out: Average radii of the inhibition zones) [mm] | Average radii of the inhibition zones (green algae CD 1 Red; CD1 Red, herbicide concentration 300 mM, 5 days) |
| --- | --- | --- | --- | --- | --- | --- | --- | --- | --- | --- | --- |
| C=CC(=O)N(CC(=O)O)CP(=O)(O)O [AA, N-Acryloyl-N-(phosphonomethyl)glycine] | 10 | No | No | No | 7.92±1.12 | roughly one-third | 23 ± 2 | Bleaching | 6 |  |  |
| O=C(O)CNCP(=O)(O)O [Glyphosate, N-(Phosphonomethyl)glycine, reference compound] |  | No | No |  | 11.9±2.56 |  | 17.5 ± 2 | Bleaching | 11 | 7.5 | Complete |
